# Test system: Laccase NS51003
# Experiment: ABTS laccase assay for relative laccase activity
# Format: biochemical, Aspergillus
# Method: One unit of activity is equal to the micromole of the oxidized product from ABTS per min per mg protein at pH 4.0 to 6.0 at 23° C. in an acetate buffer. […] A diluted enzyme solution (1.5 milliliter (ml)) was added to a mixture of 1.5 ml ABTS (0.5 millimole (mM)) solution and 1.5 ml of sodium acetate buffer (1 mM) to initiate the oxidization reaction. After mixing, incubation was conducted at 23° C., while the change in absorbance per minute was measured at 420 nm. Two Aspergillus laccases were used both from Novozymes (Bagsvaerd, Denmark), to compare with the enzyme compositions. […] NS51002 alone worked best at pH 4-5 while NS51003 worked best at pH 5-6. The ABTS laccase assay was used to evaluate the effects of cationic fixative polymer, lipase and the laccase activator of the dry strength compositions on laccase activity. The same amount of laccase active in each composition was used in the assay. In Table III, the relative activity numbers were determined by normalizing the values based on that of laccase alone at 100%.
smiles,measurement,setting,value
O=S(=O)([O-])[O-].[Cu+2] [copper sulfate],effect on laccase activity,copper level 0.5 wt. %,lost some of its original activity
same,effect on laccase activity,copper sulfate in the composition,not significant
same,effect on laccase activity,dosage of copper sulfate higher than 0.5%,negatively affected

# — patent US9663899B2, “Method for making lignocellulosic paper and paper product” (Solenis Technologies, L.P., priority 2015, dated 2017)
